Earlier results on two compounds are cited in US20210113561A1, “PHARMACEUTICAL COMPOSITION, METHODS FOR TREATING AND USES THEREOF” (Boehringer Ingelheim International GmbH, priority 2018, published 2021).

The conditions of data set [1]: patients with type 2 diabetes mellitus at high risk for cardiovascular events.
The target of data set [2] is T1, SGLT2 (Homo sapiens, UniProt P31639).
T1 sequence (P31639 1-672): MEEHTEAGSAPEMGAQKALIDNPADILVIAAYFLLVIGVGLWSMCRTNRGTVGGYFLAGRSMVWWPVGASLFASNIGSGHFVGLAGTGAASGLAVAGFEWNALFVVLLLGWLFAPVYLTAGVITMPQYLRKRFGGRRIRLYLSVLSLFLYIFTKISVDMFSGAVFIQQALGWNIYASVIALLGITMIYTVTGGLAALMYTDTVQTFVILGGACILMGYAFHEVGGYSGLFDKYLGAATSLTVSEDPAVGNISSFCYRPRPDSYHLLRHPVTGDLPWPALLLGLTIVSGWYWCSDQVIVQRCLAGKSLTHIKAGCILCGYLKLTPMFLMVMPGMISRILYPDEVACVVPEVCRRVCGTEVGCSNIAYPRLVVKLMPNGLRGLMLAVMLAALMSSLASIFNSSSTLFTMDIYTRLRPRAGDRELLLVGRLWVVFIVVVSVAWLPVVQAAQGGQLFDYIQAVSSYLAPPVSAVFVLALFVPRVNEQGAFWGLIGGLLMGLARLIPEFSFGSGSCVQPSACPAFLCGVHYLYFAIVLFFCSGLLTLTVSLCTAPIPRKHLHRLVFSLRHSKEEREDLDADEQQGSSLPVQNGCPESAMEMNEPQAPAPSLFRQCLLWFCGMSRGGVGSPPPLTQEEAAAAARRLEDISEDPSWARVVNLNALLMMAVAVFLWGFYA

For data set [3] the following is noted: metformin on its own, in the diabetic.

Turning to `OC[C@H]1O[C@@H](c2ccc(Cl)c(Cc3ccc(O[C@H]4CCOC4)cc3)c2)[C@H](O)[C@@H](O)[C@@H]1O` [empagliflozin], in data set [1], the “rates of death from any cause” value was “significantly lower rates” and the “rates of the primary composite cardiovascular outcome” value was “significantly lower rates”. In data set [2], the “selectivity SGLT2 versus SGLT1” value was “high selectivity”.
For the compound `CN(C)C(=N)N=C(N)N` [metformin], the “average improvement in the HbA1c value” in data set [3] is recorded as 1.0-1.5%.
